Patent publication US6579556B2, “Ambient stable beverage” (Lipton, division of Conopco, Inc., priority 2000, dated 2003)
Values after ≈ are worked out from the molar mass of the structure shown. Where two headings read alike, the source gives them in different places.

Tested on: yeast Saccharomyces cerevisiae X2180-1B
Assay: Fungicidal activity / MIC at 50° C. versus 30° C., yeast survival in YEPD broth pH 3.4
Assay type: cell-based
Conditions: for Importance: rating as pasteurisation adjunct
Protocol: In the table the minimum inhibitory concentration (MIC) is given for each compound as well as the molecular weight (M.W.), the logPoct and a rating of its importance. […] The logPoct, that is the logarithm of the partition coefficient of the relevant compound in octanol and thus a measure of its […], was determined using […]™ software from the CHEMOFFICE ULRA ENHANCED 2000™ software package (version 5.5) that is commercially available from CambridgeSoft.
(§1) YEPD contained glucose, 20 g/l, peptone 20 g/l and yeast extract 10 g/l. Rows of 30 ml tubes containing 10 ml YEPD, pH 3.4, were equilibrated at the required temperature for 7 minutes in a water bath, before inoculation with 10^4 cells/ml of the yeast Saccharomyces cerevisiae X2180-1B. Tubes were held at temperature for 10 minutes before being cooled rapidly in cold water for 5 minutes. Tubes were then incubated for 48 hours at 25° C. to allow surviving yeasts to grow out, and form discrete colonies.
as §1, §1, §1

[1] = Saccharomyces cerevisiae, minimum inhibitory concentration, 50° C., read-out: MIC50
[2] = minimum inhibitory concentration, 50° C.
[3] = Saccharomyces cerevisiae, read-out: MIC50

For CCCCCC(=O)OCCC(C)C [Isoamyl hexanoate], the MIC [1] was 5 mM (≈ 931 µg/mL) and the Importance was “High (High effects compounds, most preferred, generally showed at least a 5 fold decrease in MIC, minimum inhibitory concentration at 50 °C compared with 30° C.)”.

For O=C(OCc1ccccc1)c1ccccc1 [Benzyl benzoate], the MIC [1] was 20 mM (≈ 4240 µg/mL) and the Importance was “Mod”.

O=C(OCc1ccccc1)c1ccccc1O [Benzyl salicylate] was tested, and the MIC [1] was 50 mM (≈ 11400 µg/mL) and the Importance was “Low”.

In the case of C=CCOC(=O)CCC1CCCCC1 [Allyl cyclohexanepropionate], the MIC [1] was 1 mM (≈ 196 µg/mL) and the Importance was “High (High effects compounds, most preferred, generally showed at least a 5 fold decrease in MIC, minimum inhibitory concentration at 50 °C compared with 30° C.)”.

For CCCCCCCCCCOC(=O)CCC [Decyl butyrate], the MIC [1] was 70 mM (≈ 16000 µg/mL) and the Importance was “Low”.

For C=CCCCCCCCCC(=O)OCCCC [Butyl 10-undecenoate], the MIC [1] was 40 mM (≈ 9620 µg/mL) and the Importance was “Mod”.

With CCCCCCCCCOC(C)=O [Nonyl acetate] the MIC [1] was 5 mM and the Importance was “High (High effects compounds, most preferred, generally showed at least a 5 fold decrease in MIC, minimum inhibitory concentration at 50 °C compared with 30° C.)”.

In the case of CCCCCCCCCCCC(=O)OC [Methyl laurate], the MIC [1] was 40 mM (≈ 8570 µg/mL) and the Importance was “High (High effects compounds, most preferred, generally showed at least a 5 fold decrease in MIC, minimum inhibitory concentration at 50 °C compared with 30° C.)”.

w-6-Hexadecalactone was tested, and the MIC50 [2] was 50 mM and the Importance was “Low”.

In the case of CCCCCCCCCCCCCC=O [Myristaldehyde], the MIC [1] was 40 mM (≈ 8500 µg/mL) and the Importance was “Mod”.

CCCCCCCCCCCC(=O)OCCC(C)C [Isoamyl laurate] was tested, and the Importance was “Low”.

In the case of CCCCCCCCCCCCCO [Tridecanol], the MIC [1] was 0.05 mM (≈ 10 µg/mL) and the Importance was “High (High effects compounds, most preferred, generally showed at least a 5 fold decrease in MIC, minimum inhibitory concentration at 50 °C compared with 30° C.)”.

In the case of C=C(C)C1CC=C(C)C(OC(=O)CC)C1 (stereo not shown) [Carvyl propionate], the MIC50 [2] was 5 mM and the Importance was “Mod”.

CCCCCCCCCCCCCC(=O)O [Myristic acid] was tested, and the MIC [1] was 50 mM (≈ 11400 µg/mL) and the Importance was “High (High effects compounds, most preferred, generally showed at least a 5 fold decrease in MIC, minimum inhibitory concentration at 50 °C compared with 30° C.)”.

For CCCCCCOC(=O)CCCCC [Hexyl hexanoate], the MIC [1] was 30 mM (≈ 6010 µg/mL) and the Importance was “High (High effects compounds, most preferred, generally showed at least a 5 fold decrease in MIC, minimum inhibitory concentration at 50 °C compared with 30° C.)”.

With CCCCCCCCCCCCCCO [Tetradecanol] the MIC [1] was 50 mM (≈ 10700 µg/mL) and the Importance was “Mod”.

With C=CC(C)(O)CCC=C(C)CCC=C(C)C (stereo not shown) [Nerolidol] the MIC [1] was 1.5 mM (≈ 334 µg/mL) and the Importance was “High (High effects compounds, most preferred, generally showed at least a 5 fold decrease in MIC, minimum inhibitory concentration at 50 °C compared with 30° C.)”.

CC(C)=CCC/C(C)=C\COC(=O)C(C)C [Neryl isobutyrate] was tested, and the MIC [1] was 30 mM (≈ 6730 µg/mL) and the Importance was “High (High effects compounds, most preferred, generally showed at least a 5 fold decrease in MIC, minimum inhibitory concentration at 50 °C compared with 30° C.)”.

With CCCCCCCCCC=CC=O [2-Dodecenal] the MIC50 (Saccharomyces cerevisiae, minimum inhibitory concentration, 50° C., given as ppm, read-out: MIC50) was < 9 µg/mL, the MIC [1] was < 0.05 mM and the Importance was “High (High effects compounds, most preferred, generally showed at least a 5 fold decrease in MIC, minimum inhibitory concentration at 50 °C compared with 30° C.)”.

In the case of CCCCCCCCCCOC(=O)CC [Decyl propionate], the MIC [1] was 50 mM (≈ 10700 µg/mL) and the Importance was “High (High effects compounds, most preferred, generally showed at least a 5 fold decrease in MIC, minimum inhibitory concentration at 50 °C compared with 30° C.)”.

In the case of CCCCCCCCCCCCCCCCO [Hexadecanol], the MIC [1] was 100 mM (≈ 24200 µg/mL) and the Importance was “Low”.

With C=C1CC/C=C(\C)CC[C@@H]2[C@@H]1CC2(C)C [β-Caryophylene] the MIC50 [2] was 70 mM and the Importance was “Low”.

CCC(=O)OC/C=C(\C)CCC=C(C)C [Geranyl propionate] was tested, and the MIC [1] was 12 mM (≈ 2520 µg/mL) and the Importance was “High (High effects compounds, most preferred, generally showed at least a 5 fold decrease in MIC, minimum inhibitory concentration at 50 °C compared with 30° C.)”.

CCCCCCCCCCC(=O)OCC [Ethyl undecanoate] was tested, and the MIC [1] was 50 mM (≈ 10700 µg/mL) and the Importance was “Mod”.

For O=C1CCCCCCCCCCCCCCO1 [w-Pentadecalactone], the MIC50 [2] was 60 mM and the Importance was “Low”.

With CCCCCCCCC(=O)OC [Methyl nonanoate] the MIC [1] was 2 mM (≈ 345 µg/mL) and the Importance was “High (High effects compounds, most preferred, generally showed at least a 5 fold decrease in MIC, minimum inhibitory concentration at 50 °C compared with 30° C.)”.

In the case of CCCCCCCCOC(=O)CCC [Octyl butyrate], the MIC [1] was 40 mM (≈ 8010 µg/mL) and the Importance was “High (High effects compounds, most preferred, generally showed at least a 5 fold decrease in MIC, minimum inhibitory concentration at 50 °C compared with 30° C.)”.

CC(C)C(=O)OCCOc1ccccc1 [2-Phenoxylethyl isobutyrate] was tested, and the MIC [3] was 0.1 mM (≈ 20.8 µg/mL) and the Importance was “High (High effects compounds, most preferred, generally showed at least a 5 fold decrease in MIC, minimum inhibitory concentration at 50 °C compared with 30° C.)”.

CCCC(=O)OC/C=C(\C)CCC=C(C)C [Geranyl butyrate] was tested, and the MIC [1] was 40 mM (≈ 8970 µg/mL) and the Importance was “High (High effects compounds, most preferred, generally showed at least a 5 fold decrease in MIC, minimum inhibitory concentration at 50 °C compared with 30° C.)”.

With CCCCCCCCCC(=O)OCC [Ethyl decanoate] the MIC [1] was 40 mM (≈ 8010 µg/mL) and the Importance was “High (High effects compounds, most preferred, generally showed at least a 5 fold decrease in MIC, minimum inhibitory concentration at 50 °C compared with 30° C.)”.

For CCCCCCC(=O)OCCCC [Butyl heptanoate], the MIC [1] was 5 mM (≈ 931 µg/mL) and the Importance was “High (High effects compounds, most preferred, generally showed at least a 5 fold decrease in MIC, minimum inhibitory concentration at 50 °C compared with 30° C.)”.

In the case of CC(C)CCOC(=O)c1ccccc1O [Isoamyl salicylate], the MIC [1] was 15 mM (≈ 3120 µg/mL) and the Importance was “Mod”.

With CCCCCCCCCCC(=O)OC [Methyl undecanoate] the MIC [1] was 50 mM (≈ 10000 µg/mL) and the Importance was “High (High effects compounds, most preferred, generally showed at least a 5 fold decrease in MIC, minimum inhibitory concentration at 50 °C compared with 30° C.)”.

C=CC(C)(CCC=C(C)C)OC(C)=O (stereo not shown) [Linalyl acetate] was tested, and the MIC [3] was 10 mM and the Importance was “Mod”.

In the case of CCCCCCCCCCCCC=O [Tridecanal], the MIC [1] was 5 mM (≈ 992 µg/mL) and the Importance was “High (High effects compounds, most preferred, generally showed at least a 5 fold decrease in MIC, minimum inhibitory concentration at 50 °C compared with 30° C.)”.
